{"source": "paper PMC6402191", "about": "(Clinical and Translational Science, 2017)", "key": {"[1]": {"experiment": "Clinical baricitinib-probenecid DDI study in healthy subjects", "assay_type": "in vivo, human"}, "[2]": {"target": "T1, OAT3 (Homo sapiens, UniProt Q8TCC7)", "T1 sequence (Q8TCC7 1-542)": "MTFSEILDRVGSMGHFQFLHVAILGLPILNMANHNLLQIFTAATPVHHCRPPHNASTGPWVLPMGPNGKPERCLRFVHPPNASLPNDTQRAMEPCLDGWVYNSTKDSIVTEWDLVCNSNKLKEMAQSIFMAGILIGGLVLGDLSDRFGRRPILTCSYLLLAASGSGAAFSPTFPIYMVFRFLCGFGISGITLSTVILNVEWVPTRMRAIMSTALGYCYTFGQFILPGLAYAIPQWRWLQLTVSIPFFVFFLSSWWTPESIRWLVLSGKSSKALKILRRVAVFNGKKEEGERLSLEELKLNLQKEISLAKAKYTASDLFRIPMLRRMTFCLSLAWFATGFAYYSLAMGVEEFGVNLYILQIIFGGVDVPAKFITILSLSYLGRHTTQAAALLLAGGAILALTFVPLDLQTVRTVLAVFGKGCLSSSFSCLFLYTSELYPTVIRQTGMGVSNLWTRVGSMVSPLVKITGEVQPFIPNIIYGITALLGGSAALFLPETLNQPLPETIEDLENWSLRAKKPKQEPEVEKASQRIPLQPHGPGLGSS", "experiment": "PBPK DDI simulations of baricitinib with OAT3 inhibitors"}, "[3]": {"experiment": "Physicochemical input parameters"}, "[4]": {"experiment": "Plasma protein binding", "assay_type": "in vitro ADME", "conditions": "human"}, "[5]": {"conditions": "observed, listed as baricitinib"}}, "note": "Where “and” joins values, the source holds several entries; their conditions need not be identical. Equal values may be shown once. Entries after “also recorded” stand apart in the source; their conditions may differ."}
{"smiles": "CCS(=O)(=O)N1CC(CC#N)(n2cc(-c3ncnc4[nH]ccc34)cn2)C1", "note": "[Baricitinib]", "values": [{"measurement": "Ae(0‐48), arithmetic mean (SD)", "setting": "[1]; 4 mg baricitinib + probenecid", "result": "1.57 (0.191) mg"}, {"measurement": "CL/F, geometric mean (CV)", "setting": "[1]; 4 mg baricitinib + probenecid", "result": "8.33 (14) L/h"}, {"measurement": "Ae(0‐48), arithmetic mean (SD)", "setting": "[1]; 4 mg baricitinib only", "result": "2.60 (0.399) mg"}, {"measurement": "CL/F, geometric mean (CV)", "setting": "[1]; 4 mg baricitinib only", "result": "16.9 (22) L/h"}, {"measurement": "tolerability", "setting": "[1]; healthy subjects, all drug-related treatment-emergent AEs mild", "result": "well tolerated"}, {"measurement": "increase of half-life in the presence of probenecid", "setting": "[1]; human, in vivo", "result": 63, "unit": "%"}, {"measurement": "AUC", "setting": "[1]; human, plasma, oral, 4 mg", "result": 236, "unit": "ng·h/mL"}, {"measurement": "Cmax", "setting": "[1]; human, plasma, oral, 4 mg", "result": 36.2, "unit": "ng/mL"}, {"measurement": "Tmax", "setting": "[1]; human, plasma, oral, 4 mg", "result": 1, "unit": "h"}, {"measurement": "half-life", "setting": "[1]; human, plasma, oral, 4 mg", "result": 7.28, "unit": "h"}, {"measurement": "CL renal", "setting": "[1]; human, urine and plasma, oral, 4 mg", "result": 183, "unit": "mL/min"}, {"measurement": "AUC(0‐∞) ratio of geometric LS means, baricitinib + probenecid : baricitinib only (90% CI)", "setting": "[1]; observed", "result": "2.03 (1.91, 2.16) and 2.03(1.91‐2.16)"}, {"measurement": "CLr ratio of geometric LS means, baricitinib + probenecid : baricitinib only (90% CI)", "setting": "[1]; observed", "result": "0.313 (0.289, 0.339)"}, {"measurement": "Cmax ratio of geometric LS means, baricitinib + probenecid : baricitinib only (90% CI)", "setting": "[1]; observed", "result": "1.03 (0.940, 1.13)"}, {"measurement": "AUC(0‐∞) ratio of geometric LS means, baricitinib + probenecid : baricitinib only (90% CI)", "setting": "[1]; [5]", "result": "twofold; also recorded: doubled"}, {"measurement": "Cmax ratio of geometric LS means, baricitinib + probenecid : baricitinib only (90% CI)", "setting": "[1]; [5]", "result": 1.03}, {"measurement": "Observed/Predicted AUC ratio +/- probenecid", "setting": "[2]", "result": 1.0}, {"measurement": "Observed/Predicted Cmax ratio +/- probenecid", "setting": "[2]", "result": 0.9}, {"measurement": "pKa", "setting": "[3]", "result": 4}, {"measurement": "fraction unbound", "setting": "[4]", "result": 0.5}]}
